Measured values as given in ChEMBL document CHEMBL1133283, “Arylsulfonyl-N,N-diethyl-dithiocarbamates: a novel class of antitumor agents” (Bioorg Med Chem Lett, 2000).

How the values were obtained:
Type in all cases: functional
Conditions in all cases: Homo sapiens
HOP-62 = experiment: In vitro growth inhibition of compound was determined against HOP-62 cell lines of non-small cell lung cancer
SW-620 = experiment: In vitro growth inhibition of compound was determined against SW-620 cell lines of colon cancer
SK-MEL-5 = experiment: In vitro growth inhibition of compound was determined against SK-MEL-5 cell lines of Melanoma
Hs-578T = experiment: In vitro growth inhibition of compound was determined against Hs 578.T cell lines of Breast cancer
HCT-15 = experiment: In vitro growth inhibition of compound was determined against HCT-15 cell lines of colon cancer
OVCAR-3 = experiment: In vitro growth inhibition of compound was determined against OVCAR-3 cell lines of Ovarian cancer
CAKI-1 = experiment: In vitro growth inhibition of compound was determined against CAKI-1 cell lines of Renal cancer
MOLT-4 = experiment: In vitro growth inhibition of compound was determined against MOLT-4 cell lines of Leukemia
HOP-92 = experiment: In vitro growth inhibition of compound was determined against HOP-92 cell lines of non-small cell lung cancer
UACC-257 = experiment: In vitro growth inhibition of compound was determined against UACC-257 cell lines of Melanoma
HCT-116 = experiment: In vitro growth inhibition of compound was determined against HCT116 cell lines of colon cancer
MCF7 = experiment: In vitro growth inhibition of compound was determined against MCF-7 cell lines of Breast cancer
NCI/ADR-RES = experiment: In vitro growth inhibition of compound was determined against NCI/ADR-RES cell lines of Breast cancer
M14 = experiment: In vitro growth inhibition of compound was determined against M14 cell lines of Melanoma
CCRF-CEM = experiment: In vitro growth inhibition of compound was determined against CCRF-CEM cell lines of Leukemia
K562 = experiment: In vitro growth inhibition of compound was determined against K-562 cell lines of Leukemia
HL-60 = experiment: In vitro growth inhibition of compound was determined against HL-60(TB) cell lines of Leukemia
HT-29 = experiment: In vitro growth inhibition of compound was determined against HT-29 cell lines of colon cancer
MDA-MB-231 = experiment: In vitro growth inhibition of compound was determined against MDA-MB-231/ATCC cell lines of Breast cancer
BT-549 = experiment: In vitro growth inhibition of compound was determined against BT-549 cell lines of Breast cancer
UO-31 = experiment: In vitro growth inhibition of compound was determined against UO-31 cell lines of Renal cancer
SF-268 = experiment: In vitro growth inhibition of compound was determined against SF-268 cell lines of CNS cancer
MDA-MB-435 = experiment: In vitro growth inhibition of compound was determined against MDA-MB-435 cell lines of Breast cancer
786-0 = experiment: In vitro growth inhibition of compound was determined against […] cell lines of Renal cancer
IGROV-1 = experiment: In vitro growth inhibition of compound was determined against IGROVI cell lines of Ovarian cancer
NCI-H522 = experiment: In vitro growth inhibition of compound was determined against NCI-H522 cell lines of non-small cell lung cancer
COLO 205 = experiment: In vitro growth inhibition of compound was determined against COLO-205 cell lines of colon cancer
KM12 = experiment: In vitro growth inhibition of compound was determined against KM12 cell lines of colon cancer
OVCAR-4 = experiment: In vitro growth inhibition of compound was determined against OVCAR-4 cell lines of Ovarian cancer
SR = experiment: In vitro growth inhibition of compound was determined against SR cell lines of Leukemia
MDA-N = experiment: In vitro growth inhibition of compound was determined against MDA-Ncell lines of Breast cancer
OVCAR-8 = experiment: In vitro growth inhibition of compound was determined against OVCAR-8 cell lines of Ovarian cancer
SF-295 = experiment: In vitro growth inhibition of compound was determined against SF-295 cell lines of CNS cancer
LOX IMVI = experiment: In vitro growth inhibition of compound was determined against LOX IMVI cell lines of Melanoma
A549 = experiment: In vitro growth inhibition of compound was determined against A549/ATCC cell lines of non-small cell lung cancer
TK-10 = experiment: In vitro growth inhibition of compound was determined against TK-10 cell lines of Renal cancer
SNB-75 = experiment: In vitro growth inhibition of compound was determined against SNB-75 cell lines of CNS cancer
NCI-H226 = experiment: In vitro growth inhibition of compound was determined against NCI-H226 cell lines of non-small cell lung cancer
ACHN = experiment: In vitro growth inhibition of compound was determined against ACHN cell lines of Renal cancer
PC-3 = experiment: In vitro growth inhibition of compound was determined against PC-3 cell lines of Prostate cancer
HCC 2998 = experiment: In vitro growth inhibition of compound was determined against HCC2998 cell lines of colon cancer
RXF 393 = experiment: In vitro growth inhibition of compound was determined against RXF393 cell lines of Renal cancer
RPMI-8226 = experiment: In vitro growth inhibition of compound was determined against RPMI-8226 cell lines of Leukemia
SN12C = experiment: In vitro growth inhibition of compound was determined against SN12C cell lines of Renal cancer
Malme-3M = experiment: In vitro growth inhibition of compound was determined against MALME-3M cell lines of Melanoma
SK-MEL-28 = experiment: In vitro growth inhibition of compound was determined against SK-MEL-28 cell lines of Melanoma
DU-145 = experiment: In vitro growth inhibition of compound was determined against DU-145 cell lines of Prostate cancer
U-251 = experiment: In vitro growth inhibition of compound was determined against U251 cell lines of CNS cancer
SF-539 = experiment: In vitro growth inhibition of compound was determined against SF-539 cell lines of CNS cancer

CCN(CC)C(=S)SS(=O)(=O)c1ccccc1[N+](=O)[O-]
GI50 (HOP-62): 20 µM
GI50 (SW-620): 15 µM
GI50 (SK-MEL-5): 3 µM
GI50 (Hs-578T): 29 µM
GI50 (HCT-15): 34 µM
GI50 (OVCAR-3): 22 µM
GI50 (CAKI-1): 17 µM
GI50 (MOLT-4): 0.4 µM
GI50 (HOP-92): 14 µM
GI50 (UACC-257): 17 µM
GI50 (HCT-116): 15 µM
GI50 (MCF7): 25 µM
GI50 (NCI/ADR-RES): 30 µM
GI50 (M14): 11 µM
GI50 (CCRF-CEM): 2.5 µM
GI50 (K562): 11 µM
GI50 (HL-60): 0.2 µM
GI50 (HT-29): 14 µM
GI50 (MDA-MB-231): 16 µM
GI50 (BT-549): 26 µM
GI50 (UO-31): 13 µM
GI50 (SF-268): 26 µM
GI50 (MDA-MB-435): 18 µM
GI50 (786-0): 19 µM
GI50 (IGROV-1): 0.5 µM
GI50 (NCI-H522): 0.08 µM
GI50 (COLO 205): 28 µM
GI50 (KM12): 12 µM
GI50 (OVCAR-4): 23 µM
GI50 (SR): 0.3 µM
GI50 (MDA-N): 19 µM
GI50 (OVCAR-8): 18 µM
GI50 (SF-295): 32 µM
GI50 (LOX IMVI): 16 µM
GI50 (A549): 3 µM
GI50 (TK-10): 29 µM
GI50 (SNB-75): 76 µM
GI50 (NCI-H226): 36 µM
GI50 (ACHN): 24 µM
GI50 (PC-3): 54 µM
GI50 (HCC 2998): 24 µM
GI50 (RXF 393): 15 µM
GI50 (RPMI-8226): 15 µM
GI50 (SN12C): 18 µM
GI50 (Malme-3M): 10 µM
GI50 (SK-MEL-28): 13 µM
GI50 (DU-145): 19 µM
GI50 (U-251): 13 µM

CCN(CC)C(=S)SS(=O)(=O)c1ccc(NC(C)=O)cc1
GI50 (HOP-62): 18 µM
GI50 (SW-620): 16 µM
GI50 (SK-MEL-5): 0.4 µM
GI50 (Hs-578T): 60 µM
GI50 (HCT-15): 28 µM
GI50 (OVCAR-3): 31 µM
GI50 (CAKI-1): 16 µM
GI50 (MOLT-4): 48 µM
GI50 (HOP-92): 16 µM
GI50 (UACC-257): 9 µM
GI50 (HCT-116): 15 µM
GI50 (MCF7): 18 µM
GI50 (NCI/ADR-RES): 27 µM
GI50 (M14): 15 µM
GI50 (CCRF-CEM): 20 µM
GI50 (K562): 69 µM
GI50 (HL-60): 24 µM
GI50 (MDA-MB-231): 20 µM
GI50 (BT-549): 61 µM
GI50 (UO-31): 20 µM
GI50 (SF-268): 44 µM
GI50 (MDA-MB-435): 19 µM
GI50 (786-0): 17 µM
GI50 (IGROV-1): 12 µM
GI50 (NCI-H522): < 0.01 µM
GI50 (COLO 205): 22 µM
GI50 (KM12): 13 µM
GI50 (OVCAR-4): 22 µM
GI50 (SR): 0.01 µM
GI50 (MDA-N): 21 µM
GI50 (OVCAR-8): 15 µM
GI50 (SF-295): 28 µM
GI50 (LOX IMVI): 14 µM
GI50 (A549): 0.2 µM
GI50 (TK-10): 48 µM
GI50 (SNB-75): 32 µM
GI50 (NCI-H226): 35 µM
GI50 (ACHN): 27 µM
GI50 (HCC 2998): 27 µM
GI50 (RXF 393): 11 µM
GI50 (RPMI-8226): 18 µM
GI50 (SN12C): 18 µM
GI50 (Malme-3M): 16 µM
GI50 (SK-MEL-28): 15 µM
GI50 (DU-145): 23 µM
GI50 (U-251): 15 µM

CCN(CC)C(=S)SS(=O)(=O)c1ccc(N)cc1
GI50 (HOP-62): 33 µM
GI50 (SW-620): > 100 µM
GI50 (SK-MEL-5): 13 µM
GI50 (Hs-578T): 83 µM
GI50 (HCT-15): > 100 µM
GI50 (OVCAR-3): > 100 µM
GI50 (CAKI-1): 22 µM
GI50 (MOLT-4): 2 µM
GI50 (HOP-92): 5 µM
GI50 (UACC-257): > 100 µM
GI50 (HCT-116): > 100 µM
GI50 (MCF7): 5 µM
GI50 (NCI/ADR-RES): > 100 µM
GI50 (M14): 63 µM
GI50 (CCRF-CEM): > 100 µM
GI50 (K562): 34 µM
GI50 (HL-60): > 100 µM
GI50 (MDA-MB-231): > 100 µM
GI50 (BT-549): > 100 µM
GI50 (UO-31): 80 µM
GI50 (SF-268): > 100 µM
GI50 (MDA-MB-435): > 100 µM
GI50 (786-0): 3 µM
GI50 (IGROV-1): 5 µM
GI50 (NCI-H522): 1 µM
GI50 (COLO 205): > 100 µM
GI50 (KM12): 22 µM
GI50 (OVCAR-4): > 100 µM
GI50 (SR): 3 µM
GI50 (MDA-N): 65 µM
GI50 (OVCAR-8): > 100 µM
GI50 (SF-295): > 100 µM
GI50 (LOX IMVI): > 100 µM
GI50 (A549): 7 µM
GI50 (TK-10): > 100 µM
GI50 (SNB-75): 48 µM
GI50 (NCI-H226): 98 µM
GI50 (ACHN): 61 µM
GI50 (PC-3): 90 µM
GI50 (HCC 2998): 8 µM
GI50 (RXF 393): 22 µM
GI50 (RPMI-8226): 22 µM
GI50 (SN12C): > 100 µM
GI50 (Malme-3M): 46 µM
GI50 (SK-MEL-28): > 100 µM
GI50 (SF-539): 21 µM
GI50 (DU-145): > 100 µM
GI50 (U-251): > 100 µM

CCN(CC)C(=S)SS(=O)(=O)c1ccccc1C(=O)O
GI50 (HOP-62): > 100 µM
GI50 (SW-620): > 100 µM
GI50 (SK-MEL-5): 37 µM
GI50 (HCT-15): > 100 µM
GI50 (OVCAR-3): > 100 µM
GI50 (CAKI-1): > 100 µM
GI50 (HOP-92): > 100 µM
GI50 (UACC-257): > 100 µM
GI50 (MCF7): > 100 µM
GI50 (M14): > 100 µM
GI50 (CCRF-CEM): 82 µM
GI50 (HL-60): 1.4 µM
GI50 (HT-29): > 100 µM
GI50 (MDA-MB-231): > 100 µM
GI50 (UO-31): > 100 µM
GI50 (SF-268): > 100 µM
GI50 (786-0): > 100 µM
GI50 (IGROV-1): > 100 µM
GI50 (NCI-H522): 1.2 µM
GI50 (COLO 205): > 100 µM
GI50 (OVCAR-4): > 100 µM
GI50 (SR): 3.6 µM
GI50 (MDA-N): > 100 µM
GI50 (OVCAR-8): > 100 µM
GI50 (SF-295): > 100 µM
GI50 (LOX IMVI): > 100 µM
GI50 (A549): 6.5 µM
GI50 (SNB-75): > 100 µM
GI50 (NCI-H226): > 100 µM
GI50 (ACHN): > 100 µM
GI50 (PC-3): > 100 µM
GI50 (RXF 393): > 100 µM
GI50 (Malme-3M): 91 µM
GI50 (SK-MEL-28): > 100 µM
GI50 (DU-145): > 100 µM
GI50 (U-251): > 100 µM
